Assay results from PubChem BioAssay AID1963863 (Molecular Pharmacology Branch, DTP, NCI, 2024).
pIC50: −log10 of the molar value.

Tested on: 931267-113-T-J1-PDC KRAS spheroid with HUVEC/MSC, viability
Experiment: Anticancer human tumor 931267-113-T-J1-PDC patient-derived colon adenocarcinoma cell line growth inhibition [KRAS2]
Details: for pIC50: curve of first compound; for viability, T/C: stronger effect = lower value
In short: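 Combination screen of spheroid viability in tumor-cell co-cultures with endothelial (HUVEC) and mesenchymal stem cell stroma. Each agent was tested in half-log dilutions, topping at clinical Cmax or at 10 microM without a known Cmax.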

[1] = second compound 0.1 µM, first compound 0.000316 µM
[2] = second compound 0.1 µM, first compound 0.001 µM
[3] = second compound 0.1 µM, first compound 0.00316 µM
[4] = second compound 0.1 µM, first compound 0.01 µM
[5] = second compound 0.1 µM, first compound 0.0316 µM
[6] = second compound 0.1 µM, first compound 0.1 µM
[7] = second compound 0.316 µM, first compound 0.000316 µM
[8] = second compound 0.316 µM, first compound 0.001 µM
[9] = second compound 0.316 µM, first compound 0.00316 µM
[10] = second compound 0.316 µM, first compound 0.01 µM
[11] = second compound 0.316 µM, first compound 0.0316 µM
[12] = second compound 0.316 µM, first compound 0.1 µM
[13] = second compound 1 µM, first compound 0.000316 µM
[14] = second compound 1 µM, first compound 0.001 µM
[15] = second compound 1 µM, first compound 0.00316 µM
[16] = second compound 1 µM, first compound 0.01 µM
[17] = second compound 1 µM, first compound 0.0316 µM
[18] = second compound 1 µM, first compound 0.1 µM
[19] = second compound 3.16 µM, first compound 0.000316 µM
[20] = second compound 3.16 µM, first compound 0.001 µM
[21] = second compound 3.16 µM, first compound 0.00316 µM
[22] = second compound 3.16 µM, first compound 0.01 µM
[23] = second compound 3.16 µM, first compound 0.0316 µM
[24] = second compound 3.16 µM, first compound 0.1 µM
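Further: compound exposure lasted 7 days before the readout.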
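Wherever viability, T/C is given: 100% = DMSO vehicle control viability.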

| SMILES | pIC50 (second compound 0.1 µM) | pIC50 (second compound 0.316 µM) | pIC50 (second compound 1 µM) | pIC50 (second compound 3.16 µM) | viability, T/C [1] [%] | viability, T/C [2] [%] | viability, T/C [3] [%] | viability, T/C [4] [%] | viability, T/C [5] [%] | viability, T/C [6] [%] | viability, T/C [7] [%] | viability, T/C [8] [%] | viability, T/C [9] [%] | viability, T/C [10] [%] | viability, T/C [11] [%] | viability, T/C [12] [%] | viability, T/C [13] [%] | viability, T/C [14] [%] | viability, T/C [15] [%] | viability, T/C [16] [%] | other results |
| --- | --- | --- | --- | --- | --- | --- | --- | --- | --- | --- | --- | --- | --- | --- | --- | --- | --- | --- | --- | --- | --- |
| CC(C)n1nc(-c2ccc3oc(N)nc3c2)c2c(N)ncnc21 + CNCc1ccccc1-c1csc(C(C)Nc2nc(C)nc3cc(OC)c(OC)cc23)c1 | 8.21 | 8.37 | 9.00 | > 9.50 | 87.3 | 87.7 | 68.4 | 37.2 | 24.2 | 27.2 | 85.6 | 67.8 | 55.5 | 38.7 | 27.7 | 19.8 | 51.3 | 57.2 | 33.2 | 24.1 | pIC50 (second compound 10 µM): > 9.50; viability, T/C [17]: 12.7%; viability, T/C [18]: 5.59%; viability, T/C [19]: 0.15%; viability, T/C [20]: 0.12%; viability, T/C [21]: 0.09%; viability, T/C [22]: 0.08%; viability, T/C [23]: 0.07%; viability, T/C [24]: 0.21%; viability, T/C (second compound 10 µM, first compound 0.000316 µM): 0.19%; viability, T/C (second compound 10 µM, first compound 0.001 µM): 0.81%; viability, T/C (second compound 10 µM, first compound 0.00316 µM): 0.23%; viability, T/C (second compound 10 µM, first compound 0.01 µM): 0.29%; viability, T/C (second compound 10 µM, first compound 0.0316 µM): 0.33%; viability, T/C (second compound 10 µM, first compound 0.1 µM): 0.4% |
| COC(=O)c1ccc2c(C(=Nc3ccc(N(C)C(=O)CN4CCN(C)CC4)cc3)c3ccccc3)c(O)[nH]c2c1 |  |  |  |  |  |  |  |  |  |  |  |  |  |  |  |  |  |  |  |  | viability, T/C (compound 0.0316 µM): 85.8% [middle of 5 runs]; viability, T/C (compound 0.1 µM): 78.5% [middle of 5 runs]; viability, T/C (compound 0.316 µM): 69.6% [middle of 5 runs]; viability, T/C (compound 1 µM): 59.2% [middle of 5 runs]; viability, T/C (compound 3.16 µM): 0.6% [middle of 4 runs]; viability, T/C (compound 10 µM): 0.39% [middle of 4 runs]; IC50 (curve of compound): 1.2 µM [middle of 5 runs] |
| Cn1ncnc1[C@H]1c2n[nH]c(=O)c3cc(F)cc(c23)N[C@@H]1c1ccc(F)cc1 + C=CC(=O)N1CCN(c2nc(OCC3CCCN3C)nc3c2CCN(c2cccc4cccc(C)c24)C3)CC1CC#N | < 7.00 | < 7.00 | < 7.00 | > 9.50 | 102 | 90.9 | 69.8 | 77.9 | 78.2 | 67.3 | 89.9 | 66.3 | 89.9 | 86 | 69.8 | 66.3 | 76 | 76.5 | 68.5 | 80.8 | pIC50 (second compound 0.0316 µM): < 7.00; viability, T/C (second compound 0.0316 µM, first compound 0.000316 µM): 118%; viability, T/C (second compound 0.0316 µM, first compound 0.001 µM): 89.7%; viability, T/C (second compound 0.0316 µM, first compound 0.00316 µM): 90%; viability, T/C (second compound 0.0316 µM, first compound 0.01 µM): 75.5%; viability, T/C (second compound 0.0316 µM, first compound 0.0316 µM): 77.2%; viability, T/C (second compound 0.0316 µM, first compound 0.1 µM): 80.7%; viability, T/C [17]: 68.8%; viability, T/C [18]: 69.9%; viability, T/C [19]: 1.48%; viability, T/C [20]: 4.65%; viability, T/C [21]: 3.13%; viability, T/C [22]: 15.2%; viability, T/C [23]: 0.64%; viability, T/C [24]: 8.16% |
